Data set [1] concerns SW837 human colon cancer cells. Briefly: Cell proliferation assay (Coulter Counter). Format: cell-based. As to conditions: 1.0 μg/mL, 96 hours. How it is done: Thirty thousand SW837 human colon cancer cells were seeded into multiple 35-mm diameter dishes in DFI0 medium, and 24 hours later the cells were treated with EGCG (0, 1.0, or 20 μg/mL) for 96 hours, during which time, the medium and drugs were not changed. As a control, the cells were treated with 0.1% DMSO. Every 24 hours, and for a total time of 96 hours, replicate plates of cells were washed with PBS and the attached cells were collected by trypsinization. The numbers of cells in replica plates were then counted using a Coulter Counter (Beckman Coulter Co., Fullerton, Calif.) as described in Shimizu et al., Clin. Cancer Res., 10:1130-1140 (2004).

The subject of data set [2] is EGFR, ERK1, ERK2, and AKT. Briefly: Phosphorylation of signaling proteins in HT29 cells. Format: cell-based, human. How it is done: These effects were detected with as little as […] of EGCG, and within 5 minutes. Phosphorylation of EGFR, ERK1, ERK2, and AKT were suppressed in cells treated with methyl-β-cyclodextrin, which depletes plasma membrane cholesterol. […] In addition, the inhibitory effect of EGCG on phosphorylation of EGFR was not blocked by the addition of cholesterol on the growth medium. These findings provide evidence that EGCG can alter membrane domain organization in colon cancer cells ant that this is not due to cholesterol depletion. It was noted that pre-treatment of the cells with EGCG or Poly E inhibited the binding of Alexa 488-labeled EGF to the cell surface receptor EGFR.

The test system of data set [3] is EGFR, HER2, HER3, Akt and ERK. Briefly: Western blot analysis in SW837 cells, total levels of the respective proteins. Type of data set: cell-based, human. Conditions: 20 μg/mL, during the time course. An excerpt:
(§1) Total cellular protein was extracted and equivalent amounts of protein can be determined by western blot analysis using the methods described in Suzui, et al., Cancer Res., 62:3997-4006 (2002). The primary antibodies for several proteins are described in Masuda et al., Clin Cancer Res., 7:4220-4229 (2001); Masuda et al., Clin Cancer Res., 9:3486-3491 (2003); and Shimizu et al., Clin Cancer Res., 11:2735-2746 (2005). The primary antibodies for HER3 (2F12) and COX-2 (PG27) were purchased from Upstate Cell Signaling Solutions (Charlottesville, Va.) and Oxford Biochemical Research (Oxford, Mich.), respectively. To examine the levels of expression of the phosphorylated (i.e. activated) form of the HER3 protein (p-HER3), cellular lysates (1 mg/mL) were incubated with 4 μg anti-HER3 antibody overnight at 4° C. with slow agitation, and immune complexes were then precipitated by adding protein A/G agarose (sc-2003, Santa Cruz Biotechnology, Santa Cruz, Calif.). After incubating for 2 hours at 4° C., the beads were washed with lysis buffer, and bound proteins were eluted into the sample buffer and subjected to western blot analysis, as described above. The p-HER3 protein was then detected by using an anti-phospho-tyrosine antibody (PY-20-HRP, BD Transduction Laboratories, San Diego, Calif.). An antibody to actin was used as a loading control. […]

The subject of another data set is HT29 cells. Briefly: Incorporation of DilC16 into the plasma membrane after pretreatment. Conditions: HT29 pretreated with test substance. Type of data set: cell-based, human.
In a further data set the test system is COX-2 promoter. Briefly: Transient transfection luciferase reporter assay in SW837 cells. Type of data set: cell-based, human. Conditions: 10 and 20 μg/mL, 24 hours. The protocol: (§2) Reporter assays were performed performed using the methods described in Suzui, et al., Cancer Res., 62:3997-4006 (2002). The COX-2-luciferase reporter plasmid phPES2(−327/+59) was provided by the National Cardiovascular Research Institute (Osaka, Japan). The pAP-1 luciferase reporter plasmid was provided by the National Cancer Institute (Bethesda, Md.). The NF-[…]B promoter luciferase reporter plasmid […]NF-[…]B-Luc is described in Masuda et al., Clin. Cancer Res. 7:4220-4229 (2001). One μg of DNA of the indicated luciferase reporter plasmid was transfected into SW837 human colon cancer cells (3.0×10^5 cells/35-mm diameter dish) using Lipofectin reagent (Invitrogen) in opti-MEM I medium (Invitrogen). After 24 hours the cells were treated with EGCG (0, 10, or 20 μg/mL) for 24 hours, and extracts were then prepared. Luciferase activities were determined using a luciferase assay system ([…]., Madison, Wis.). In all of these reporter assays the cells were also cotransfected with a CMV-[…]-galactosidase ([…]-gal) reporter. Luciferase activities were normalized with respect to the […]-gal activities, to correct for differences in transfection efficiency, using the methods described in Suzui, et al., Cancer Res., 62:3997-4006 (2002).

The next data set relates to NF-κB promoter. The description is as above. As to conditions: 10 and 20 μg/mL, 24 hours. Type of data set: cell-based, human. How it is done: as §2
Another data set relates to AP-1 promoter. Described as above. Type of data set: cell-based, human. As to conditions: 10 and 20 μg/mL, 24 hours, inhibition most apparent for this promoter. The protocol:
as §2

The conditions of data set [4]: obtained in a clinical study; value said to be in the range of the peak; cited from earlier work.
A further data set concerns IGF-1. Briefly: Production of growth factors in HepG2 cells. Format: cell-based, human. Conditions: 20 μg/mL, listed as EGCG. How it is done:
(§3) The cells were treated with […] EGCG at 0, 3, 6, 12, 24 and 48 hours, and cell extracts were examined by Western blot analysis using the respective antibodies, or were examined by semiquantitative RT-PCR analysis using IGFBP-3 or IGF-1 specific primers.
(§4) Using the MTT cell proliferation assay described in Example 21, and substituting HepG2 human liver cancer cells in place of SW837 cells, the effects of EGCG (20 μg/mL), an illustrative Synergistic Polyphenol Compound, on the production of IGF-1, IGF-2 and IGFBP-3 was determined. […] Accordingly, the Synergistic Polyphenol Compounds are useful for treating or preventing liver cancer.

The subject of another data set is IGF-2. Briefly: Production of growth factors in HepG2 cells. Type of data set: cell-based, human. As to conditions: 20 μg/mL, listed as EGCG. The protocol:
as §3, §4

Another data set concerns p-HER3. Briefly: Immunoprecipitation and western blot analysis in SW837 cells. Type of data set: cell-based, human.
Description: as §1

Another data set has as its system IGFBP-3. Briefly: Production of IGFBP-3 in HepG2 cells. Type of data set: cell-based, human. As to conditions: 20 μg/mL. How it is done: as §3, §4

Entries after “also recorded” stand apart in the source; their conditions may differ.

(−)-epigallocatechin gallate: in data set [1], the inhibition of growth result is “about 55%”. For the same substance, the “inhibitory effect on phosphorylation of EGFR on addition of cholesterol to the growth medium” value in data set [2] is given as “not blocked”. Besides, the “total levels of the respective proteins” value in data set [3] was “no significant changes”. For the same substance, in the data set on HT29 cells, the “subsequent incorporation of DilC16 into the plasma membrane” value is “inhibit”. Moreover, in the data set with COX-2 promoter, the “COX-2 luciferase reporter activity” value was “inhibition”. For the same substance, the “NF-κB luciferase reporter activity” value in the data set on NF-κB promoter is “inhibition”. Moreover, the “AP-1 luciferase reporter activity” value in the data set with AP-1 promoter is on record as “inhibition”. Besides, the peak plasma concentration in data set [4] is ~1.0 µg/mL. The “production of IGF-1” value with IGF-1 is “inhibited production; also recorded: decreased the production”. Besides, the “production of IGF-2” value in the data set on IGF-2 is “inhibited production; also recorded: decreased the production”. The “levels of the p-HER3 protein” value is reported as “decrease” with p-HER3 (1.0 μg/mL, 96 hours) and “marked decrease” in the data set with p-HER3 (20 μg/mL, within 6 hours). In the data set on IGFBP-3, the “production of IGFBP-3” value is reported as “increased the production”.

Source of the values: US20070054868A1, “Synergistic polyphenol compounds, compositions thereof, and uses thereof” (The Trustees of Columbia University in the City of New York, priority 2005, published 2007).
